According to PubChem BioAssay (NCI):
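Each compound was tested at five concentrations against cells in 96-well plates for 48 hours. At the TGI there is no net growth.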

Tests used:
Assay in all cases: NCI-60 cell line screen, 48 h
KM20L2 colon = system: KM20L2 colon
U251 CNS = system: U251 CNS
UO-31 renal = system: UO-31 renal
HT29 colon = system: HT29 colon
M19-MEL melanoma = system: M19-MEL melanoma
UACC-62 melanoma = system: UACC-62 melanoma
SR leukemia = system: SR leukemia
SW-620 colon = system: SW-620 colon
SK-MEL-28 melanoma = system: SK-MEL-28 melanoma
SK-MEL-2 melanoma = system: SK-MEL-2 melanoma
NCI-H522 lung = system: NCI-H522 lung
OVCAR-4 ovarian = system: OVCAR-4 ovarian
SNB-75 CNS = system: SNB-75 CNS
OVCAR-8 ovarian = system: OVCAR-8 ovarian
786-0 renal = system: 786-0 renal
MOLT-4 leukemia = system: MOLT-4 leukemia
SF-295 CNS = system: SF-295 CNS
UACC-257 melanoma = system: UACC-257 melanoma
OVCAR-5 ovarian = system: OVCAR-5 ovarian
SF-539 CNS = system: SF-539 CNS
TK-10 renal = system: TK-10 renal
HOP-18 NSCLC = system: HOP-18 NSCLC
CCRF-CEM leukemia = system: CCRF-CEM leukemia
DMS 114 small cell lung = system: DMS 114 small cell lung
SK-OV-3 ovarian = system: SK-OV-3 ovarian
LXFL 529 NSCLC = system: LXFL 529 NSCLC
RXF 393 renal = system: RXF 393 renal
NCI-H226 lung = system: NCI-H226 lung
IGROV1 ovarian = system: IGROV1 ovarian
HCC-2998 colon = system: HCC-2998 colon
HCT-15 colon = system: HCT-15 colon
K-562 leukemia = system: K-562 leukemia
KM12 colon = system: KM12 colon
SNB-78 CNS = system: SNB-78 CNS
HOP-92 NSCLC = system: HOP-92 NSCLC
M14 melanoma = system: M14 melanoma
A498 renal = system: A498 renal
HCT-116 colon = system: HCT-116 colon
EKVX NSCLC = system: EKVX NSCLC
DLD-1 colon = system: DLD-1 colon
ACHN renal = system: ACHN renal
SNB-19 CNS = system: SNB-19 CNS
NCI-H460 lung = system: NCI-H460 lung
MALME-3M melanoma = system: MALME-3M melanoma
SF-268 CNS = system: SF-268 CNS
HOP-62 NSCLC = system: HOP-62 NSCLC
A549 NSCLC = system: A549 NSCLC
HL-60(TB) leukemia = system: HL-60(TB) leukemia
SN12C renal = system: SN12C renal
SK-MEL-5 melanoma = system: SK-MEL-5 melanoma
CAKI-1 renal = system: CAKI-1 renal
NCI-H23 lung = system: NCI-H23 lung
COLO 205 colon = system: COLO 205 colon
DMS 273 small cell lung = system: DMS 273 small cell lung
OVCAR-3 ovarian = system: OVCAR-3 ovarian
LOX IMVI melanoma = system: LOX IMVI melanoma
RPMI-8226 leukemia = system: RPMI-8226 leukemia

Cc1nc(Nc2ccc(Cl)cc2)sc1C(=O)NNC(=O)C(=O)NN
TGI (KM20L2 colon): 30 µM | TGI (U251 CNS): 33.2 µM | TGI (UO-31 renal): 31.5 µM | TGI (HT29 colon): 31.2 µM | TGI (M19-MEL melanoma): 35.6 µM | TGI (UACC-62 melanoma): 28.6 µM | TGI (SR leukemia): 54.8 µM | TGI (SW-620 colon): 32.6 µM | TGI (SK-MEL-28 melanoma): 47.3 µM | TGI (SK-MEL-2 melanoma): 32.6 µM | TGI (NCI-H522 lung): 32 µM | TGI (OVCAR-4 ovarian): 34.3 µM | TGI (SNB-75 CNS): 48.6 µM | TGI (OVCAR-8 ovarian): > 100 µM | TGI (786-0 renal): 32 µM | TGI (MOLT-4 leukemia): 42.5 µM | TGI (SF-295 CNS): 34 µM | TGI (UACC-257 melanoma): 52.5 µM | TGI (OVCAR-5 ovarian): 34.5 µM | TGI (SF-539 CNS): 41 µM | TGI (TK-10 renal): 91.7 µM | TGI (HOP-18 NSCLC): 37.1 µM | TGI (CCRF-CEM leukemia): 52.8 µM | TGI (DMS 114 small cell lung): 40.7 µM | TGI (SK-OV-3 ovarian): 40.5 µM | TGI (LXFL 529 NSCLC): 33.6 µM | TGI (RXF 393 renal): 43.4 µM | TGI (NCI-H226 lung): 36.6 µM | TGI (IGROV1 ovarian): 33.7 µM | TGI (HCC-2998 colon): 35.5 µM | TGI (HCT-15 colon): 31.6 µM | TGI (K-562 leukemia): 51.4 µM | TGI (KM12 colon): 36 µM | TGI (SNB-78 CNS): 64 µM | TGI (HOP-92 NSCLC): 36.4 µM | TGI (M14 melanoma): 34 µM | TGI (A498 renal): 29.5 µM | TGI (HCT-116 colon): 33.9 µM | TGI (EKVX NSCLC): 30.6 µM | TGI (DLD-1 colon): 32.9 µM | TGI (ACHN renal): 49.4 µM | TGI (SNB-19 CNS): 46.3 µM | TGI (NCI-H460 lung): 34.7 µM | TGI (MALME-3M melanoma): 38.8 µM | TGI (SF-268 CNS): 66.5 µM | TGI (HOP-62 NSCLC): 35.9 µM | TGI (A549 NSCLC): 37.9 µM | TGI (HL-60(TB) leukemia): 41 µM | TGI (SN12C renal): 30.5 µM | TGI (SK-MEL-5 melanoma): 32.7 µM | TGI (CAKI-1 renal): 49.3 µM | TGI (NCI-H23 lung): 31.8 µM | TGI (COLO 205 colon): 35.8 µM | TGI (DMS 273 small cell lung): 33.9 µM | TGI (OVCAR-3 ovarian): 38.1 µM | TGI (LOX IMVI melanoma): 32.3 µM

C/C(=C1/N=C(c2cc([N+](=O)[O-])ccc2Cl)N(c2ccc(Br)cc2)C1=O)c1cc2ccccc2oc1=O
TGI (KM20L2 colon): > 100 µM | TGI (U251 CNS): > 100 µM | TGI (UO-31 renal): > 100 µM | TGI (HT29 colon): > 100 µM | TGI (M19-MEL melanoma): > 100 µM | TGI (UACC-62 melanoma): > 100 µM | TGI (SR leukemia): > 100 µM | TGI (SW-620 colon): > 100 µM | TGI (SK-MEL-28 melanoma): > 100 µM | TGI (SK-MEL-2 melanoma): > 100 µM | TGI (NCI-H522 lung): 52.4 µM | TGI (OVCAR-4 ovarian): > 100 µM | TGI (SNB-75 CNS): > 100 µM | TGI (OVCAR-8 ovarian): > 100 µM | TGI (MOLT-4 leukemia): > 100 µM | TGI (SF-295 CNS): > 100 µM | TGI (RPMI-8226 leukemia): > 100 µM | TGI (UACC-257 melanoma): > 100 µM | TGI (OVCAR-5 ovarian): > 100 µM | TGI (SF-539 CNS): > 100 µM | TGI (HOP-18 NSCLC): > 100 µM | TGI (CCRF-CEM leukemia): > 100 µM | TGI (DMS 114 small cell lung): > 100 µM | TGI (SK-OV-3 ovarian): > 100 µM | TGI (LXFL 529 NSCLC): > 100 µM | TGI (NCI-H226 lung): > 100 µM | TGI (IGROV1 ovarian): > 100 µM | TGI (HCC-2998 colon): 65.1 µM | TGI (HCT-15 colon): > 100 µM | TGI (K-562 leukemia): > 100 µM | TGI (KM12 colon): > 100 µM | TGI (SNB-78 CNS): > 100 µM | TGI (M14 melanoma): > 100 µM | TGI (A498 renal): 66.8 µM | TGI (HCT-116 colon): > 100 µM | TGI (EKVX NSCLC): > 100 µM | TGI (DLD-1 colon): > 100 µM | TGI (ACHN renal): > 100 µM | TGI (SNB-19 CNS): > 100 µM | TGI (NCI-H460 lung): > 100 µM | TGI (MALME-3M melanoma): > 100 µM | TGI (SF-268 CNS): > 100 µM | TGI (HOP-62 NSCLC): > 100 µM | TGI (A549 NSCLC): > 100 µM | TGI (HL-60(TB) leukemia): > 100 µM | TGI (SN12C renal): > 100 µM | TGI (SK-MEL-5 melanoma): > 100 µM | TGI (CAKI-1 renal): > 100 µM | TGI (NCI-H23 lung): > 100 µM | TGI (COLO 205 colon): 21.8 µM | TGI (OVCAR-3 ovarian): > 100 µM | TGI (LOX IMVI melanoma): > 100 µM

CC/C=C/c1cc2c(c3[nH]ccc13)[C@@H](C)CC2C (stereo partly specified) (tested in a mixture with another compound)
TGI (KM20L2 colon): 29.3 µM | TGI (U251 CNS): 31.9 µM | TGI (UO-31 renal): 31 µM | TGI (HT29 colon): 28.4 µM | TGI (M19-MEL melanoma): 35.3 µM | TGI (SW-620 colon): 32.3 µM | TGI (SK-MEL-28 melanoma): 30.2 µM | TGI (SK-MEL-2 melanoma): 29.6 µM | TGI (NCI-H522 lung): 30.9 µM | TGI (OVCAR-4 ovarian): 28.9 µM | TGI (OVCAR-8 ovarian): 31.4 µM | TGI (786-0 renal): 33.1 µM | TGI (SF-295 CNS): 30.2 µM | TGI (UACC-257 melanoma): 29.8 µM | TGI (OVCAR-5 ovarian): 34.1 µM | TGI (SF-539 CNS): 33.6 µM | TGI (TK-10 renal): 36.9 µM | TGI (HOP-18 NSCLC): 26.5 µM | TGI (DMS 114 small cell lung): 35.6 µM | TGI (LXFL 529 NSCLC): 30 µM | TGI (RXF 393 renal): 25.7 µM | TGI (NCI-H226 lung): 28.8 µM | TGI (HCC-2998 colon): 10 µM | TGI (KM12 colon): 32.2 µM | TGI (SNB-78 CNS): 32.3 µM | TGI (M14 melanoma): 29.3 µM | TGI (HCT-116 colon): 33.8 µM | TGI (EKVX NSCLC): 36 µM | TGI (DLD-1 colon): 26.3 µM | TGI (ACHN renal): 31.7 µM | TGI (SNB-19 CNS): 33.8 µM | TGI (NCI-H460 lung): 29.5 µM | TGI (MALME-3M melanoma): 36 µM | TGI (SF-268 CNS): 32 µM | TGI (HOP-62 NSCLC): 32.8 µM | TGI (A549 NSCLC): 39.1 µM | TGI (HL-60(TB) leukemia): 44.5 µM | TGI (SN12C renal): 28.8 µM | TGI (CAKI-1 renal): 31.7 µM | TGI (NCI-H23 lung): 33.1 µM | TGI (COLO 205 colon): 39.7 µM | TGI (DMS 273 small cell lung): 29.4 µM | TGI (LOX IMVI melanoma): 29.4 µM
